The pIC50 is the IC50 on a negative log10 scale, so that one unit is a factor of ten.

Structures are written as SMILES. pEC50, pIC50: −log10 of the molar value.

In one series the target is p38 MAPKα (Homo sapiens (Human), UniProt Q16539). The experiment in a line: p38 MAPKα enzyme inhibition (FRET, Z-LYTE). In kind it is biochemical.
The target in the next series is cSrc (Homo sapiens (Human), UniProt P12931). Briefly: c-Src enzyme inhibition (FRET, Z-LYTE). The class given is biochemical. An outline of the steps:
(§1)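 Z-LYTE FRET kinase assay: enzyme (3000 or 2000 ng/mL stock, respectively) preincubated 2 h at RT with compound (4–0.004 μg/mL stocks), then FRET peptide plus ATP (800 μM stock for c-Src, 60 μM for Syk) added for 1 h. Protease development 1 h; phosphorylation from coumarin/fluorescein emission ratio.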

Another series addresses Syk (Homo sapiens (Human), UniProt P43405). Briefly: Syk enzyme inhibition (FRET, Z-LYTE). The class given is biochemical. An outline of the steps:
as §1

The next series addresses GSK3α (Homo sapiens (Human), UniProt P49840). Briefly: GSK 3α enzyme inhibition (FRET, Z-LYTE). In kind it is biochemical. An outline of the steps: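 Phosphorylation was read as the donor (coumarin) to acceptor (fluorescein) ratio after a 1 hr protease step destroying non-phosphorylated peptide. Before this, compound (4–0.004 μg/mL stocks) sat 2 hr at RT with GSK3α (500 ng/mL stock), followed by 1 hr kinase reaction with 8 μM peptide and 40 μM ATP stocks.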

Series [1] deals with LPS-induced TNFα release in d-U937 cells. The experiment in a line: LPS-induced TNFα release in d-U937 cells. In kind it is cell-based. To be noted: Homo sapiens, dU937, relative to 10 μg/mL BIRB796, read-out: LPS Induced Release of Cytokine in d-937 Cells TNFα REC50. The essentials: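 Human monocytic U937 cells were differentiated to macrophage-type cells with PMA (100 ng/mL) for 48 to 72 hr, pre-treated with test compound for 2 hr, then stimulated 4 hr with E. coli O111:B4 LPS (0.1 μg/mL). Supernatant TNFα and IL-8 were measured by sandwich ELISA; REC50 came from concentration-response curves.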

Series [2] concerns LPS-induced IL-8 release in d-U937 cells. Briefly: LPS-induced IL-8 release in d-U937 cells. The class given is cell-based. To be noted: Homo sapiens, dU937, read-out: LPS Induced Release of Cytokine in d-937 Cells IL-8 IC50. The essentials:
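Read-out: TNFα and IL-8 released into supernatant, sandwich ELISA, expressed as inhibition versus vehicle at each dose and fitted to give REC50. Cells were PMA-differentiated U937 (100 ng/mL, 48–72 hr), compound-exposed 2 hr before a 4 hr LPS stimulus (0.1 μg/mL).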

Series [3] deals with Poly I:C-induced ICAM-1 expression in BEAS2B cells. The experiment in a line: Poly I:C-induced ICAM-1 expression in BEAS2B cells. In kind it is cell-based. To be noted: Homo sapiens, BEAS-2B, read-out: Poly IC induced ICAM1 in BEAS2B IC50. The essentials:
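Cell-based ELISA read at 450 nm minus 655 nm, divided by crystal violet OD595 to normalize for cell number, gave ICAM-1 levels. Readout was taken 18 hr after poly I:C (1 μg/mL, Oligofectamine) transfection of human bronchial BEAS2B cells pretreated 2 hr with test compound.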

Another series deals with d-U937 cells. Briefly: Cell viability: MTT assay. The following applies: 1 μg/mL. In kind it is cell-based, human. An outline of the steps:
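MTT read-out (1 h, absorbance 550 nm) on d-U937 cells after pre-incubation with 1 or 10 μg/mL compound under two regimes: 4 h, 5% FCS, or 24 h, 10% FCS RPMI1640. Values are percent loss of viability relative to vehicle (0.5% DMSO), so increases are reported as negative.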

The subject of series [4] is LPS-induced airways neutrophilia in mice. The experiment in a line: LPS-induced neutrophil accumulation in mice. In kind it is in vivo. To be noted: Test Substance at 0.2 mg/mL, intra tracheal, dosed 8 hr pre-LPS challenge. How it is done: Non-fasted Balb/c mice are dosed by the intra tracheal route with either vehicle, or the test substance at the indicated times (within the range 2-8 hr) before stimulation of the inflammatory response by application of an LPS challenge. At T=0, mice are placed into an exposure chamber and exposed to LPS (7.0 mL, 0.5 mg/mL solution in PBS) for 30 min). After a further 8 hr the animals are anesthetized, their tracheas cannulated and BALF extracted by infusing and then withdrawing from their lungs 1.0 mL of PBS via the tracheal catheter. Total and differential white cell counts in the BALF samples are measured using a Neubaur haemocytometer. Cytospin smears of the BALF samples are prepared by centrifugation at 200 rpm for 5 min at RT and stained using a DiffQuik stain system (Dade Behring). Cells are counted using oil immersion microscopy. Data for neutrophil numbers in BAL are shown as mean±S.E.M. (standard error of the mean). The percentage inhibition of neutrophil accumulation is calculated for each treatment relative to vehicle treatment.

Chain of cSrc (P12931 whole entry, looked up): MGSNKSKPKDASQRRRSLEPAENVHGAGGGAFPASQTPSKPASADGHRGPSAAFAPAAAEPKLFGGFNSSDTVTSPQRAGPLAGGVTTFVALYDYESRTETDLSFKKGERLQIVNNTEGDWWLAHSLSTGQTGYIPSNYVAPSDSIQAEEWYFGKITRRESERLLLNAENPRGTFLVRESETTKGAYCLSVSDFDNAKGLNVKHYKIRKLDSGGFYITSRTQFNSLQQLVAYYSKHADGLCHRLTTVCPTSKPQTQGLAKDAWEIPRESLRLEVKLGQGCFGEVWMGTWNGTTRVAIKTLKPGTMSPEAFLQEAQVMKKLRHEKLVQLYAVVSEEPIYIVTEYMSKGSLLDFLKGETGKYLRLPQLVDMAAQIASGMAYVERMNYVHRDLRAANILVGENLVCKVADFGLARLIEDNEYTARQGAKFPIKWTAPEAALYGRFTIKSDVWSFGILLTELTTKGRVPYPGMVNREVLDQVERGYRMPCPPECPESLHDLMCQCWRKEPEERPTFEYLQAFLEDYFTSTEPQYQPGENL
Chain of GSK3α (P49840 whole entry): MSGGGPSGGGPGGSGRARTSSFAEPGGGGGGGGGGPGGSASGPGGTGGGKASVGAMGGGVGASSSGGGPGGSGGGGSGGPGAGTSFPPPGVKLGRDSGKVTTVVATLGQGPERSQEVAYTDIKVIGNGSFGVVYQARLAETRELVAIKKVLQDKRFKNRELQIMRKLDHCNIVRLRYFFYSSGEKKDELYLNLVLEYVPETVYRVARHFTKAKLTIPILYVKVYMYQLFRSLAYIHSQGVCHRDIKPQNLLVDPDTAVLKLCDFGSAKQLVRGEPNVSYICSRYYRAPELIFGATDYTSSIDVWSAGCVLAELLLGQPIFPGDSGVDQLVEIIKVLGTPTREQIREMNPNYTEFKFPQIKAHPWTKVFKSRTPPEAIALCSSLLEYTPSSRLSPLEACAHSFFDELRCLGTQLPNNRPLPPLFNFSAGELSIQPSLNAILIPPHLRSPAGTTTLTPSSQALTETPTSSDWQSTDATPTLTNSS
Chain of p38 MAPKα (Q16539 whole entry): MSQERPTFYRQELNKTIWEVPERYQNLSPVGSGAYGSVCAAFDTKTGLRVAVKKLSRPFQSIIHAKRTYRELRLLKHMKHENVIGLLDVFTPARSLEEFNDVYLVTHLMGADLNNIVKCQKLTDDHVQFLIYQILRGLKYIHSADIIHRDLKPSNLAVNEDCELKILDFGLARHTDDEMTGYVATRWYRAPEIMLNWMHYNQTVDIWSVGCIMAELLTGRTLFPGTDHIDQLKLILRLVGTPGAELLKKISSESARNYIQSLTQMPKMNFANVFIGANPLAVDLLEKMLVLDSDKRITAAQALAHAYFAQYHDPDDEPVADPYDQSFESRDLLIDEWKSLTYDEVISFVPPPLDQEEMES

On to `COc1ccc(-n2nc(C(C)(C)C)cc2NC(=O)Nc2ccc(Oc3ccnc(Nc4cc(C)c5[nH]ncc5c4)n3)c3ccccc23)cc1` [Example 42, 1-(3-(tert-butyl)-1-(4-methoxyphenyl)-1H-pyrazol-5-yl)-3-(4-((2-((7-methyl-1H-indazol-5-yl)amino)pyrimidin-4-yl)oxy)naphthalen-1-yl)urea], for which the negative-log IC50 (pIC50) is 7.17 against p38 MAPKα; 8.30 against cSrc; 8.30 against Syk; < 5.82 against GSK3α; 8.85 in [2]; 8.85 in series [3]. For the same compound, in series [1], the pEC50 was 8.77. In the series on d-U937 cells, the “MTT Assay Cell viability at time point in d-U937 cells 4 h” value was “−ve (−ve and +ve indicate that the value is below and above respectively, the no significant effect threshold, defined as 30% inhibition at 1 μg/mL at the time point indicated.)”. In addition, the “MTT Assay Cell viability at time point in d-U937 cells 24 h” value in the series on d-U937 cells is “+ve (−ve and +ve indicate that the value is below and above respectively, the no significant effect threshold, defined as 30% inhibition at 1 μg/mL at the time point indicated.)”. Besides, the “% Inhibition of neutrophil accumulation in BAL” value in [4] came out at 50%. For the same compound, in series [4], the “Neutrophil numbers in BAL (+/−SEM)” value was 8.5 ± 1.5 ×10^5/mL.

In the case of `CC(C)(C)c1cc(NC(=O)Nc2ccc(Oc3ccnc(Nc4ccc5[nH]ncc5c4)n3)c3ccccc23)n(-c2cccc(CN3CCCC3=O)c2)n1` [Example 49, 1-(4-((2-((1H-indazol-5-yl)amino)pyrimidin-4-yl)oxy)naphthalen-1-yl)-3-(3-(tert-butyl)-1-(3-((2-oxopyrrolidin-1-yl)methyl)phenyl)-1H-pyrazol-5-yl)urea], the pIC50 on p38 MAPKα was 7.54; against cSrc it was 8.30; against Syk, 7.92; against GSK3α it was 5.87; in [2], 8.01; in [3] it was 8.66. In addition, the pEC50 in [1] is 8.60. Also, the “MTT Assay Cell viability at time point in d-U937 cells 4 h” value in the series on d-U937 cells was “−ve (−ve and +ve indicate that the value is below and above respectively, the no significant effect threshold, defined as 30% inhibition at 1 μg/mL at the time point indicated.)”. Also, the “MTT Assay Cell viability at time point in d-U937 cells 24 h” value in the series on d-U937 cells was “−ve (−ve and +ve indicate that the value is below and above respectively, the no significant effect threshold, defined as 30% inhibition at 1 μg/mL at the time point indicated.)”.

Regarding `CC(C)(C)c1cc(NC(=O)Nc2ccc(Oc3ccnc(Nc4ccc5[nH]ncc5c4)c3)c3ccccc23)n(-c2ccc(OCCN3CCOCC3)cc2)n1` [Example 67], the pIC50 at p38 MAPKα was 8.30; against cSrc it was > 9.00; at Syk, > 9.00; at GSK3α, 5.52; in [2], 9.52; in series [3], 8.60. In addition, the pEC50 in series [1] was 8.82. Moreover, the “MTT Assay Cell viability at time point in d-U937 cells 4 h” value in the series on d-U937 cells is “−ve (−ve and +ve indicate that the value is below and above respectively, the no significant effect threshold, defined as 30% inhibition at 1 μg/mL at the time point indicated.)”. Further, the “MTT Assay Cell viability at time point in d-U937 cells 24 h” value in the series with d-U937 cells is “−ve (−ve and +ve indicate that the value is below and above respectively, the no significant effect threshold, defined as 30% inhibition at 1 μg/mL at the time point indicated.)”.

With `CC(C)(C)c1cc(NC(=O)Nc2ccc(Oc3ccnc(Nc4ccc5scnc5c4)n3)c3ccccc23)n(-c2ccc(OCCN3CCOCC3)cc2)n1` [Example 79, 1-(4-((2-(benzo[d]thiazol-5-ylamino)pyrimidin-4-yl)oxy)naphthalen-1-yl)-3-(3-(tert-butyl)-1-(4-(2-morpholinoethoxy)phenyl)-1H-pyrazol-5-yl)urea], the pIC50 was 6.83 at p38 MAPKα; 8.10 at cSrc; 7.44 on Syk; 6.14 on GSK3α; 7.91 in [2]; 8.15 in series [3]. Also, the pEC50 in series [1] was 7.98. In addition, the “MTT Assay Cell viability at time point in d-U937 cells 4 h” value in the series with d-U937 cells is “−ve (−ve and +ve indicate that the value is below and above respectively, the no significant effect threshold, defined as 30% inhibition at 1 μg/mL at the time point indicated.)”. Further, the “MTT Assay Cell viability at time point in d-U937 cells 24 h” value in the series on d-U937 cells was “−ve (−ve and +ve indicate that the value is below and above respectively, the no significant effect threshold, defined as 30% inhibition at 1 μg/mL at the time point indicated.)”.

For `Cc1ccc(-n2nc(C(C)(C)C)cc2NC(=O)Nc2ccc(Oc3ccnc(Nc4ccc5c(c4)OCO5)n3)c3ccccc23)cc1` [Example 33, 1-(4-((2-(benzo[d][1,3]dioxol-5-ylamino)pyrimidin-4-yl)oxy)naphthalen-1-yl)-3-(3-(tert-butyl)-1-(p-tolyl)-1H-pyrazol-5-yl)urea], the pIC50 on p38 MAPKα is 6.43; at cSrc, 7.64; against Syk it was 6.17; on GSK3α, 5.29; in series [2], 8.48; in series [3], 8.57. The pEC50 in [1] is 8.42. In the series on d-U937 cells, the “MTT Assay Cell viability at time point in d-U937 cells 4 h” value was “−ve (−ve and +ve indicate that the value is below and above respectively, the no significant effect threshold, defined as 30% inhibition at 1 μg/mL at the time point indicated.)”. Moreover, the “MTT Assay Cell viability at time point in d-U937 cells 24 h” value with d-U937 cells was “−ve (−ve and +ve indicate that the value is below and above respectively, the no significant effect threshold, defined as 30% inhibition at 1 μg/mL at the time point indicated.)”.

`COc1ccc(-n2nc(C(C)(C)C)cc2NC(=O)Nc2ccc(Oc3ccnc(Nc4ccc5[nH]ncc5c4)n3)c3ccccc23)cn1` [Example 13, 1-(4-((2-((1H-Indazol-5-yl)amino)pyrimidin-4-yl)oxy)naphthalen-1-yl)-3-(3-(tert-butyl)-1-(6-methoxypyridin-3-yl)-1H-pyrazol-5-yl)urea]: the pIC50 at p38 MAPKα was 7.52; against cSrc, 8.52; on Syk, 8.10; against GSK3α, < 5.81; in [2] it was 9.30; in [3] it was 8.62. Moreover, the pEC50 in series [1] is 8.80. In the series on d-U937 cells, the “MTT Assay Cell viability at time point in d-U937 cells 4 h” value was “−ve (−ve and +ve indicate that the value is below and above respectively, the no significant effect threshold, defined as 30% inhibition at 1 μg/mL at the time point indicated.)”. The “MTT Assay Cell viability at time point in d-U937 cells 24 h” value with d-U937 cells is “−ve (−ve and +ve indicate that the value is below and above respectively, the no significant effect threshold, defined as 30% inhibition at 1 μg/mL at the time point indicated.)”. The “% Inhibition of neutrophil accumulation in BAL” value in [4] is 50%. Moreover, the “Neutrophil numbers in BAL (+/−SEM)” value in series [4] was 8.5 ± 1.4 ×10^5/mL.

These data come from patent US9249125B2, “Pyrazole derivatives as p38 MAP inhibitors” (RESPIVERT LIMITED, priority 2012, dated 2016).
